{"source": "patent US20100152136A1", "about": "(priority 2006, published 2010)", "tested_on": "newly diagnosed multiple myeloma patients", "assay": "Total Therapy 2 (TT2) clinical trial, multivariate Cox regression of overall and event-free survival", "assay_type": "in vivo, human", "description": "Purified plasma cells (PCs) were obtained from newly diagnosed multiple myeloma patients who were treated on NIH-sponsored clinical trials UARK 98-026 (Total Therapy 2, TT2) (n=351) and UARK 03-033 (Total Therapy 3, TT3) (n=214). Both protocols utilized induction regimens, followed by melphalan-based tandem autotransplants, consolidation chemotherapy and maintenance treatment.\nThe Kaplan-Meier method was to estimate OS. OS was defined as the time from the date of registration until death from any cause; survivors were censored at the time of last contact. Significance analysis of microarray (SAM) was used to determine statistically significant expression changes of genes in high- and low-TP53-expressing MM plasma cells. Univariate and multivariate analyses of prognostic factors were performed with the Cox regression.\nThe details of TT2 and TT3 protocols and their overall results have been reported previously; however, results related to 177 additional patients treated in a TT3 successor protocol to validate bortezomib pharmaco-genomic data have not been reported. The median follow-up times for TT2 and TT3 are 7.2 and 3.9 years, respectively. Both protocols and their revisions had been approved by the Institutional Review Board, and patients had signed a written informed consent in keeping with institutional and federal policies.\nThe Kaplan-Meier method was used to estimate overall and event-free survival with group comparisons made using the log-rank test. Overall survival and event-free survival were measured from the date of registration until death from any cause and disease relapse or death from any cause, respectively; survivors were censored at the time of last contact. Univariate and multivariate analyses of prognostic factors were carried out using Cox regression models.", "key": {"[1]": {"conditions": "TT2, randomization to thalidomide, 170/341 patients, multivariate analysis, median follow-up 7.2 years (Table 5)"}}}
{"molecule": "O=C1CCC(N2C(=O)c3ccccc3C2=O)C(=O)N1", "note": "(stereo not shown) [Thalidomide]", "values": [{"measurement": "effect of randomization on event-free and overall survival", "setting": "TT2, in words", "result": "beneficial effect"}, {"measurement": "Event-Free Survival HR (95% CI)", "setting": "TT2, randomization to thalidomide, 166/334 patients, multivariate analysis (Table 2)", "result": "0.75 (0.60, 0.93)"}, {"measurement": "Event-free survival HR", "setting": "[1]", "result": 0.61}, {"measurement": "Overall Survival HR", "setting": "[1]", "result": 0.70}]}
